In US9457033B2, “Steroid alkaloids and uses thereof as antimicrobial agents against electron transport-deficient microbes and as potentiators for antimicrobial agents against pathogenic bacteria” (priority 2011, dated 2016):
Values after ≈ are worked out from the molar mass of the structure shown. Read-outs that look alike come from different tables or passages of the source.

Assays:
[1] = system: S. aureus ATCC 29213; experiment: MIC, microdilution in CAMHB 24 h, with or without tomatidine/compound; type: cell-based, Staphylococcus aureus; settings: for MIC: Staphylococcus aureus
[2] = system: S. aureus ATCC 29213; experiment: Checkerboard assay, aminoglycoside and tomatidine; type: cell-based, Staphylococcus aureus; settings: for MIC: Staphylococcus aureus, ATCC29213, checkerboard
Method: This checkerboard protocol (Eliopoulos and Moellering, 1996) was conducted by a microdilution method similar to that use for standard MICs determination. In 96 wells plates, antibiotics were loaded at a 4× concentration (where X is the maximal tested concentration) in well A1 and at a 2× concentration in the others wells of the column 1. Antibiotics were serially diluted 1:1 from the column 2 to column 10. […] Wells A12, B12, […] are positive untreated controls whereas wells […] are negative non-inoculated controls. […] The FIC index was calculated as follow (Eliopoulos and Moellering, 1996): FIC […]/MICB, where A and B are MICs of compounds A and B in combination and where MICA and MICB are the MICs of compound A alone and of compound B alone, respectively, and FICA and FICB are the FICs of compound A and of compound B, respectively.

[3] = system: S. aureus Newbould; experiment: MIC, microdilution in CAMHB 24 h; type: cell-based, Staphylococcus aureus; settings: Newbould; for MIC: Staphylococcus aureus
[4] = system: S. aureus SHY97-3906; experiment: MIC, microdilution in CAMHB 24 h; type: cell-based, Staphylococcus aureus; settings: for MIC: Staphylococcus aureus, SHY973906
[5] = system: S. aureus ATCC 43300; experiment: MIC, microdilution in CAMHB 24 h; type: cell-based, Staphylococcus aureus; settings: ATCC 43300; for MIC: Staphylococcus aureus
[6] = system: S. aureus ATCC BAA-41; experiment: MIC, microdilution in CAMHB 24 h; type: cell-based, Staphylococcus aureus; settings: for MIC: Staphylococcus aureus
[7] = system: S. aureus N315; experiment: microbe, parasite or virus in culture; type: cell-based, Staphylococcus aureus; settings: for MIC: Staphylococcus aureus
[8] = system: S. aureus MRSA COL; experiment: MIC, microdilution in CAMHB 24 h; type: cell-based, Staphylococcus aureus; settings: MRSA COL; for MIC: Staphylococcus aureus
[9] = system: S. aureus Sa220c; experiment: MIC, microdilution in CAMHB 24 h; type: cell-based, Staphylococcus aureus; settings: Sa220c; for MIC: Staphylococcus aureus
[10] = system: S. aureus Sa228c; experiment: MIC, microdilution in CAMHB 24 h; type: cell-based, Staphylococcus aureus; settings: for MIC: Staphylococcus aureus
[11] = system: S. aureus CF1A-L; experiment: MIC, microdilution in CAMHB 24 h; type: cell-based, Staphylococcus aureus; settings: CF1A-L; for MIC: Staphylococcus aureus, CF1AL
[12] = system: S. aureus CF2A-L; experiment: MIC, microdilution in CAMHB 24 h; type: cell-based; settings: CF2A-L; for MIC: Staphylococcus aureus, CF2AL
[13] = system: S. aureus CF4B-L; experiment: MIC, microdilution in CAMHB 24 h; type: cell-based, Staphylococcus aureus; settings: CF4B-L; for MIC: Staphylococcus aureus, CF4BL
[14] = system: S. aureus CF6B-L; experiment: MIC, microdilution in CAMHB 24 h; type: cell-based, Staphylococcus aureus; settings: CF6B-L; for MIC: Staphylococcus aureus, CF6BL
[15] = system: S. aureus CF8E-L; experiment: MIC, microdilution in CAMHB 24 h; type: cell-based, Staphylococcus aureus; settings: CF8E-L; for MIC: Staphylococcus aureus, CF8EL
[16] = system: S. aureus CF9A-L; experiment: MIC, microdilution in CAMHB 24 h; type: cell-based, Staphylococcus aureus; settings: CF9A-L; for MIC: Staphylococcus aureus
[17] = system: S. aureus CF35A-L; experiment: MIC, microdilution in CAMHB 24 h; type: cell-based, Staphylococcus aureus; settings: CF35A-L; for MIC: Staphylococcus aureus
[18] = system: S. aureus CF07-L; experiment: MIC, microdilution in CAMHB 24 h; type: cell-based, Staphylococcus aureus; settings: CF07-L; for MIC: Staphylococcus aureus, CF07L
[19] = 8 μg/ml of tomatidine, read-out: MIC +TO
[20] = absence of tomatidine, read-out: MIC −TO
[21] = Human (CF lungs), read-out: MIC
[22] = Human (CF lungs), MRSA, read-out: MIC

With `NC[C@H]1O[C@H](O[C@H]2[C@H](O)[C@@H](O[C@H]3O[C@H](CO)[C@@H](O)[C@H](N)[C@H]3O)[C@H](N)C[C@@H]2N)[C@H](O)[C@@H](O)[C@@H]1O` [Kanamycin, kanamycin] the “Fold (−TO/+TO)” value ([1]; ATCC 29123, 8 μg/ml of tomatidine) was 4-8 fold, the “Fold (−TO/+TO)” value ([1]; ATCC 29213, tomatidine at 8 μg/ml) was 4-8 fold and the MIC ([1]; ATCC 29123 / ATCC 29213, ATCC 29123, 8 μg/ml of tomatidine, read-out: MIC +TO) was 0.5 µg/mL (≈ 1.03 µM). The MIC ([1]; ATCC 29123 / ATCC 29213, ATCC 29123, absence of tomatidine, read-out: MIC −TO) was 2 to 4 µg/mL (≈ 4.13 to 8.26 µM), the MIC ([1]; ATCC29213, ATCC 29213, Human (SSTI), read-out: MIC) was 2 to 4 µg/mL (≈ 4.13 to 8.26 µM) and the MIC ([1]; ATCC29213, ATCC 29213, absence of tomatidine, read-out: MIC −TO) was 2 to 4 µg/mL (≈ 4.13 to 8.26 µM). It also gave an MIC ([1]; ATCC29213, ATCC 29213, presence of tomatidine at 8 μg/ml, read-out: MIC +TO) of 0.5 µg/mL, an MIC ([2]; tomatidine 0 μg/ml) of 2 to 4 µg/mL and an MIC ([2]; tomatidine 0.06 μg/ml) of 2 µg/mL. It also gave an MIC ([2]; tomatidine 0.12 μg/ml) of 0.5 to 1 µg/mL, an MIC ([2]; tomatidine 0.25 μg/ml) of 0.5 µg/mL and an MIC ([2]; tomatidine 0.5 μg/ml) of 0.5 µg/mL. It also gave an MIC ([2]; tomatidine 1 μg/ml) of 0.5 to 1 µg/mL, an MIC ([2]; tomatidine 2 μg/ml) of 0.25 to 0.5 µg/mL and an MIC ([2]; tomatidine 4 μg/ml) of 0.5 µg/mL. The MIC ([2]; tomatidine 8 μg/ml) was 0.5 µg/mL, the FIC index ([2]; aminoglycoside with tomatidine, tomatidine MIC considered 32 μg/ml, values overestimated) was “≦0.193” and the “Fold (−TO/+TO)” value ([3]; 8 μg/ml of tomatidine) was 8 fold. The MIC [3, 19] was 0.5 µg/mL (≈ 1.03 µM), the MIC ([3]; Cow (mastitis), read-out: MIC) was 4 µg/mL (≈ 8.26 µM) and the MIC [3, 20] was 4 µg/mL (≈ 8.26 µM). The “Fold (−TO/+TO)” value ([4]; SHY-3906, 8 μg/ml of tomatidine) was 4 fold, the MIC ([4]; SHY97-3906, Cow (mastitis), read-out: MIC) was 2 µg/mL (≈ 4.13 µM) and the MIC ([4]; SHY-3906, 8 μg/ml of tomatidine, read-out: MIC +TO) was 0.5 µg/mL (≈ 1.03 µM). The MIC ([4]; SHY-3906, absence of tomatidine, read-out: MIC −TO) was 2 µg/mL (≈ 4.13 µM), the “Fold (−TO/+TO)” value ([5]; 8 μg/ml of tomatidine) was 2-4 fold and the MIC ([5]; ATCC 43300 / MRSA, Human (HA), MRSA, read-out: MIC) was 512 to 1020 µg/mL (≈ 1060 to 2110 µM). The MIC ([5]; ATCC43300, 8 μg/ml of tomatidine, read-out: MIC +TO) was 256 µg/mL (≈ 528 µM), the MIC ([5]; ATCC43300, absence of tomatidine, read-out: MIC −TO) was 512 to 1020 µg/mL (≈ 1060 to 2110 µM) and the “Fold (−TO/+TO)” value ([6]; ATCC BAA-41, 8 μg/ml of tomatidine) was 4-8 fold. For the same compound, the MIC ([6]; ATCC BAA-41 / MRSA, ATCC BAA-41, Human (HA), MRSA, read-out: MIC) was 256 to 512 µg/mL (≈ 528 to 1060 µM), the MIC ([6]; ATCCBAA41, ATCC BAA-41, ant(4′)-Ia, 8 μg/ml of tomatidine, read-out: MIC +TO) was 64 µg/mL (≈ 132 µM) and the MIC ([6]; ATCCBAA41, ATCC BAA-41, ant(4′)-Ia, absence of tomatidine, read-out: MIC −TO) was 256 to 512 µg/mL (≈ 528 to 1060 µM). The “Fold (−TO/+TO)” value ([7]; N315, 8 μg/ml of tomatidine) was 4 fold, the MIC ([7]; N315, read-out: MIC +TO) was 64 µg/mL (≈ 132 µM) and the MIC ([7]; N315, read-out: MIC −TO) was 256 µg/mL (≈ 528 µM). For the same compound, the “Fold (−TO/+TO)” value ([8]; 8 μg/ml of tomatidine) was 8 fold, the MIC [8, 19] was 0.5 µg/mL (≈ 1.03 µM) and the MIC ([8]; Human (SSTI), read-out: MIC) was 4 µg/mL (≈ 8.26 µM). For the same compound, the MIC [8, 20] was 4 µg/mL (≈ 8.26 µM), the “Fold (−TO/+TO)” value ([9]; 8 μg/ml of tomatidine) was 8 fold and the MIC [9, 19] was 0.5 µg/mL (≈ 1.03 µM). For the same compound, the MIC ([9]; Human (SSTI), MRSA, read-out: MIC) was 4 µg/mL (≈ 8.26 µM), the MIC [9, 20] was 4 µg/mL (≈ 8.26 µM) and the “Fold (−TO/+TO)” value ([10]; Sa228c, 8 μg/ml of tomatidine) was 2-8 fold. The MIC ([10]; MRSA) was 512 to 1020 µg/mL (≈ 1060 to 2110 µM), the MIC ([10]; SA228C, read-out: MIC +TO) was 128 to 256 µg/mL (≈ 264 to 528 µM) and the MIC ([10]; SA228C, read-out: MIC −TO) was 512 to 1020 µg/mL (≈ 1060 to 2110 µM). The “Fold (−TO/+TO)” value ([11]; 8 μg/ml of tomatidine) was 8 fold, the MIC [11, 19] was 0.5 µg/mL (≈ 1.03 µM) and the MIC [11, 21] was 4 µg/mL (≈ 8.26 µM). The MIC [11, 20] was 4 µg/mL (≈ 8.26 µM), the “Fold (−TO/+TO)” value ([12]; 8 μg/ml of tomatidine) was 8 fold and the MIC [12, 19] was 0.5 µg/mL (≈ 1.03 µM). The MIC [12, 21] was 4 µg/mL (≈ 8.26 µM), the MIC [12, 20] was 4 µg/mL (≈ 8.26 µM) and the “Fold (−TO/+TO)” value ([13]; 8 μg/ml of tomatidine) was 8 fold. It also gave an MIC [13, 19] of 0.5 µg/mL (≈ 1.03 µM), an MIC [13, 21] of 4 µg/mL (≈ 8.26 µM) and an MIC [13, 20] of 4 µg/mL (≈ 8.26 µM). The “Fold (−TO/+TO)” value ([14]; 8 μg/ml of tomatidine) was 4-8 fold, the MIC ([14]; aac(6′)-aph(2″), 8 μg/ml of tomatidine, read-out: MIC +TO) was 128 to 256 µg/mL (≈ 264 to 528 µM) and the MIC ([14]; aac(6′)-aph(2″), absence of tomatidine, read-out: MIC −TO) was 1020 µg/mL (≈ 2110 µM). For the same compound, the MIC [14, 21] was 1020 µg/mL (≈ 2110 µM), the “Fold (−TO/+TO)” value ([15]; 8 μg/ml of tomatidine) was 2-4 fold and the MIC [15, 19] was 2 to 8 µg/mL (≈ 4.13 to 16.5 µM). The MIC [15, 21] was 16 µg/mL (≈ 33 µM), the MIC [15, 20] was 16 µg/mL (≈ 33 µM) and the “Fold (−TO/+TO)” value ([16]; 8 μg/ml of tomatidine) was 1-2 fold. For the same compound, the MIC ([16]; CF9AL, ant(4′)-Ia, 8 μg/ml of tomatidine, read-out: MIC +TO) was 128 to 256 µg/mL (≈ 264 to 528 µM), the MIC ([16]; CF9AL, ant(4′)-Ia, absence of tomatidine, read-out: MIC −TO) was 256 µg/mL (≈ 528 µM) and the MIC [16, 22] was 256 µg/mL (≈ 528 µM). The “Fold (−TO/+TO)” value ([17]; 8 μg/ml of tomatidine) was 4 fold, the MIC ([17]; CF35AL, 8 μg/ml of tomatidine, read-out: MIC +TO) was 1 µg/mL (≈ 2.06 µM) and the MIC ([17]; CF35AL, absence of tomatidine, read-out: MIC −TO) was 4 µg/mL (≈ 8.26 µM). For the same compound, the MIC [17, 22] was 4 µg/mL (≈ 8.26 µM), the “Fold (−TO/+TO)” value ([18]; 8 μg/ml of tomatidine) was 4-8 fold and the MIC [18, 19] was 0.5 to 1 µg/mL (≈ 1.03 to 2.06 µM). For the same compound, the MIC [18, 21] was 4 µg/mL (≈ 8.26 µM) and the MIC [18, 20] was 4 µg/mL (≈ 8.26 µM).
